Each compound was assayed against T1, 15-hydroxyprostaglandin dehydrogenase [NAD(+)] (Homo sapiens, UniProt P15428) (assay: Inhibition of human 15PGDH expressed in Escherichia coli BL-21 by fluorescence spectrophotometry).
T1 sequence (P15428 whole entry): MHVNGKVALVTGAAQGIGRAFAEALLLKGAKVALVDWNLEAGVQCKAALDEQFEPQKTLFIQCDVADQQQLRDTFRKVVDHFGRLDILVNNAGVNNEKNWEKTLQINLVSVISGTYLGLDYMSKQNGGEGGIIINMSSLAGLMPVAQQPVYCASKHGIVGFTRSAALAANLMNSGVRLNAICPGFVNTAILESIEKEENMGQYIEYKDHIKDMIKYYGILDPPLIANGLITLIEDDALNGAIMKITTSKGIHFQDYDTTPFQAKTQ

SMILES | IC50
O=C1NC(=O)/C(=C/c2ccc(OCCC3CCCC3)cc2)S1 | 116 nM
O=C1NC(=O)/C(=C/c2ccc(OCC3CCCC3)cc2)S1 | 45 nM
O=C1N=C(O)S/C1=C\c1ccc(OCCc2cccs2)cc1 | 31 nM
O=C1NC(=O)/C(=C/c2ccc(OCc3ccco3)cc2)S1 | 893 nM
O=C1NC(=O)/C(=C\c2ccc(OCc3ccc(-c4ccccc4)cc3)cc2)S1 | 814 nM
O=C1N=C(O)S/C1=C\c1ccc(OCc2ccc3c(c2)OCO3)cc1 | 252 nM
O=C1NC(=O)/C(=C/c2ccc(OCc3cccs3)cc2)S1 | 287 nM
O=C1S/C(=C\c2ccc(OCCC3CCCCC3)cc2)C(=O)N1CCO | 526 nM
COc1ccc(COc2ccc(/C=C3\SC(=O)NC3=O)cc2)cc1 | 529 nM
O=C1N=C(O)S/C1=C\c1ccc(OCc2ccsc2)cc1 | 429 nM
O=C1N=C(O)S/C1=C\c1ccc(OCCN2CCS(=O)(=O)CC2)cc1 | 274 nM
O=C1NC(=O)/C(=C/c2ccc(OCCc3ccsc3)cc2)S1 | 60 nM
O=C1NC(=O)/C(=C/c2ccc(OCCC3CCCCO3)cc2)S1 (stereo unspecified) | 750 nM
Cc1ccc(COc2ccc(/C=C3\SC(O)=NC3=O)cc2)cc1 | 232 nM
O=C1N=C(O)S/C1=C\c1ccc(OCCc2ccccn2)cc1 | 660 nM
Cc1ncsc1CCOc1ccc(/C=C2\SC(O)=NC2=O)cc1 | 636 nM
COC(=O)C1CCC(COc2ccc(/C=C3\SC(=O)NC3=O)cc2)CC1 (stereo unspecified) | 620 nM
O=C1N=C(O)S/C1=C\c1ccc(OCCNC2CCCCC2)cc1 | 3720 nM
O=C1NC(=O)/C(=C/c2ccc(OCCC3CCCCC3)cc2)N1 | 865 nM
O=C1NC(=O)/C(=C\c2ccc(OCC3COc4ccccc4O3)cc2)S1 (stereo unspecified) | 172 nM
CC(C)OCCOc1ccc(/C=C2\SC(O)=NC2=O)cc1 | 1250 nM
O=C1NC(=O)/C(=C/c2ccc(OCCN3CCOCC3)cc2)S1 | 713 nM
O=C1N=C(O)S/C1=C\c1ccc(OCCCN2CCS(=O)(=O)CC2)cc1 | 1960 nM
O=C1C/C(=C\c2ccc(OCCC3CCCCC3)cc2)C(=O)N1 | 3790 nM
CC1CCC(COc2ccc(/C=C3\SC(O)=NC3=O)cc2)CC1 (stereo unspecified) | 52 nM
O=C1N=C(O)S/C1=C\c1ccc(OCCN2CCCCC2)cc1 | 1440 nM
